How the values were obtained:
Assay in all cases: Z'-LYTE kinase panel
Format in all cases: biochemical
AKT3 (PKB gamma) = biological target: T1, AKT3 (PKB gamma) (Homo sapiens, UniProt Q9Y243)
T1 construct: purchased ThermoFisher (SelectScreen, Z'-LYTE)
How it was run: (§1)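 Activity is reported as percent inhibition at one concentration, 10 µM, determined by the standard Z′-LYTE kinase assay across 225 panel kinases.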

CAMK1D (CaMKI delta) = biological target: T2, CAMK1D (CaMKI delta) (Homo sapiens, UniProt Q8IU85)
T2 construct: purchased ThermoFisher (SelectScreen, Z'-LYTE)
How it was run: as §1

CAMK4 (CaMKIV) = biological target: T3, CAMK4 (CaMKIV) (Homo sapiens, UniProt Q16566)
T3 construct: purchased ThermoFisher (SelectScreen, Z'-LYTE)
How it was run: as §1

CSNK1D (CK1 delta) = biological target: T4, CSNK1D (CK1 delta) (Homo sapiens, UniProt P48730)
T4 construct: purchased ThermoFisher (SelectScreen, Z'-LYTE)
How it was run: as §1

FGFR3 = biological target: T5, FGFR3 (Homo sapiens, UniProt P22607)
T5 construct: purchased ThermoFisher (SelectScreen, Z'-LYTE)
How it was run: as §1

GRK7 = biological target: T6, GRK7 (Homo sapiens, UniProt Q8WTQ7)
T6 construct: purchased ThermoFisher (SelectScreen, Z'-LYTE)
T6 sequence (Q8WTQ7 1-553): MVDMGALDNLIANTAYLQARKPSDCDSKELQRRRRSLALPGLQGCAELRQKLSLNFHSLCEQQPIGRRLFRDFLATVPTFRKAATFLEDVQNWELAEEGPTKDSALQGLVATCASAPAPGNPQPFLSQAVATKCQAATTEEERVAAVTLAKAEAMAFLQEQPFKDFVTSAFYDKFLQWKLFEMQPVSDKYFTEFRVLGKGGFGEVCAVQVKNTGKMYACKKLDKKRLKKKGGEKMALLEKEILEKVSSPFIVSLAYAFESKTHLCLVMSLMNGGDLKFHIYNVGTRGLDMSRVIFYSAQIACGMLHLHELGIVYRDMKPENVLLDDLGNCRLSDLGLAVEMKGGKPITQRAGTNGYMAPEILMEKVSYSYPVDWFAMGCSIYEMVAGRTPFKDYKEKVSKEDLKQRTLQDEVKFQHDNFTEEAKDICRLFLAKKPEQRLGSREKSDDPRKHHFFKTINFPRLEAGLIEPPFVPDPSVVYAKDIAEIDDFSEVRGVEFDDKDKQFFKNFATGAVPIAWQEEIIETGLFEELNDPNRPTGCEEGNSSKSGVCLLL
How it was run: as §1

MAP3K9 (MLK1) = biological target: T7, MAP3K9 (MLK1) (Homo sapiens, UniProt P80192)
T7 construct: purchased ThermoFisher (SelectScreen, Z'-LYTE)
How it was run: as §1

MARK1 (MARK) = biological target: T8, MARK1 (MARK) (Homo sapiens, UniProt Q9P0L2)
T8 construct: purchased ThermoFisher (SelectScreen, Z'-LYTE)
How it was run: as §1

MARK2 = biological target: T9, MARK2 (Homo sapiens, UniProt Q7KZI7)
T9 construct: purchased ThermoFisher (SelectScreen, Z'-LYTE)
How it was run: as §1

MERTK (cMER) = biological target: T10, MERTK (cMER) (Homo sapiens, UniProt Q12866)
T10 construct: purchased ThermoFisher (SelectScreen, Z'-LYTE)
T10 sequence (Q12866 21-999): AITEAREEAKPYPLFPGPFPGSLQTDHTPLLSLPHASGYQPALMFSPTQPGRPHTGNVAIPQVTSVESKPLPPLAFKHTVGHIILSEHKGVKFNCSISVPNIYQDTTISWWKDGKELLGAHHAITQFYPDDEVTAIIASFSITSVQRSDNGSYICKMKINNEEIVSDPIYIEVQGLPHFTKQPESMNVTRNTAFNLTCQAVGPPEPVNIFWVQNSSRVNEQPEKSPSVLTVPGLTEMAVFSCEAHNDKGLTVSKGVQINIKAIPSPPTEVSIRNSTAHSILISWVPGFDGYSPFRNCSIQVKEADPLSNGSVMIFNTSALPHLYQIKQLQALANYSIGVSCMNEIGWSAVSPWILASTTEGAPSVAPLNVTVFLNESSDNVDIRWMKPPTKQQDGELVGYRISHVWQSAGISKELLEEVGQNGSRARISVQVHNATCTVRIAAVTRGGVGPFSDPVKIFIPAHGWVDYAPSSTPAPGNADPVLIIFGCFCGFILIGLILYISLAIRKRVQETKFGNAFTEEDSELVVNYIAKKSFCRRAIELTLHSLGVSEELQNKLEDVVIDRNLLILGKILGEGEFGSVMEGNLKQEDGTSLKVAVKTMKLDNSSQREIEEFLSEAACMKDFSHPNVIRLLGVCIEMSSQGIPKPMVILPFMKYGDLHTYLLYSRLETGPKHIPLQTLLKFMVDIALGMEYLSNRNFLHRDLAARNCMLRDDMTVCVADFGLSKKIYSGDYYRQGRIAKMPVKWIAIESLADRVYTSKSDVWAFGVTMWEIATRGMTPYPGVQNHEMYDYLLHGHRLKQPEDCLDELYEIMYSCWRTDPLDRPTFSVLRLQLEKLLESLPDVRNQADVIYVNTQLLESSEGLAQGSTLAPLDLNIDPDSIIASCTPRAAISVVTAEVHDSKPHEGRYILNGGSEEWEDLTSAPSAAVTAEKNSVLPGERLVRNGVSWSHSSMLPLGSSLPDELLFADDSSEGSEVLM
How it was run: as §1

MST4 = biological target: T11, MST4 (Homo sapiens, UniProt Q9P289)
T11 construct: purchased ThermoFisher (SelectScreen, Z'-LYTE)
How it was run: as §1

NTRK3 (TRKC) = biological target: T12, NTRK3 (TRKC) (Homo sapiens, UniProt Q16288)
T12 construct: purchased ThermoFisher (SelectScreen, Z'-LYTE)
How it was run: as §1

PRKCI (PKC iota) = biological target: T13, PRKCI (PKC iota) (Homo sapiens, UniProt P41743)
T13 construct: purchased ThermoFisher (SelectScreen, Z'-LYTE)
T13 sequence (P41743 1-596): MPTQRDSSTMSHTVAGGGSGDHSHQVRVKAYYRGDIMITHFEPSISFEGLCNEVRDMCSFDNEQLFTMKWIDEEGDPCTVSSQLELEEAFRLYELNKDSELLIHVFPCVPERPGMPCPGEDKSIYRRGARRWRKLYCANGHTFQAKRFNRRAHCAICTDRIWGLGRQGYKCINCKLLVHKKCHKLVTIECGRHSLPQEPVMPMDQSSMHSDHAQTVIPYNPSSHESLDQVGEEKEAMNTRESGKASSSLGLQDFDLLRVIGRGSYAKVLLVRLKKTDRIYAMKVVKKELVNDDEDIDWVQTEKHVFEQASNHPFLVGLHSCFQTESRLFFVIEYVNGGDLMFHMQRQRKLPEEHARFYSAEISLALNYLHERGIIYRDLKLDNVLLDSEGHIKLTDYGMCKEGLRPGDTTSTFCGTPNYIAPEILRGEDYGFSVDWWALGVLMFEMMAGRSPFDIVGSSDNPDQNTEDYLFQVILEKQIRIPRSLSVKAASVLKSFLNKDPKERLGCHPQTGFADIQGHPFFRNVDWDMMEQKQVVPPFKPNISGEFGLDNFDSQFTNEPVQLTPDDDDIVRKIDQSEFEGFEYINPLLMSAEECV
How it was run: as §1

PTK6 (Brk) = biological target: T14, PTK6 (Brk) (Homo sapiens, UniProt Q13882)
T14 construct: purchased ThermoFisher (SelectScreen, Z'-LYTE)
How it was run: as §1

T7 sequence (P80192 whole entry): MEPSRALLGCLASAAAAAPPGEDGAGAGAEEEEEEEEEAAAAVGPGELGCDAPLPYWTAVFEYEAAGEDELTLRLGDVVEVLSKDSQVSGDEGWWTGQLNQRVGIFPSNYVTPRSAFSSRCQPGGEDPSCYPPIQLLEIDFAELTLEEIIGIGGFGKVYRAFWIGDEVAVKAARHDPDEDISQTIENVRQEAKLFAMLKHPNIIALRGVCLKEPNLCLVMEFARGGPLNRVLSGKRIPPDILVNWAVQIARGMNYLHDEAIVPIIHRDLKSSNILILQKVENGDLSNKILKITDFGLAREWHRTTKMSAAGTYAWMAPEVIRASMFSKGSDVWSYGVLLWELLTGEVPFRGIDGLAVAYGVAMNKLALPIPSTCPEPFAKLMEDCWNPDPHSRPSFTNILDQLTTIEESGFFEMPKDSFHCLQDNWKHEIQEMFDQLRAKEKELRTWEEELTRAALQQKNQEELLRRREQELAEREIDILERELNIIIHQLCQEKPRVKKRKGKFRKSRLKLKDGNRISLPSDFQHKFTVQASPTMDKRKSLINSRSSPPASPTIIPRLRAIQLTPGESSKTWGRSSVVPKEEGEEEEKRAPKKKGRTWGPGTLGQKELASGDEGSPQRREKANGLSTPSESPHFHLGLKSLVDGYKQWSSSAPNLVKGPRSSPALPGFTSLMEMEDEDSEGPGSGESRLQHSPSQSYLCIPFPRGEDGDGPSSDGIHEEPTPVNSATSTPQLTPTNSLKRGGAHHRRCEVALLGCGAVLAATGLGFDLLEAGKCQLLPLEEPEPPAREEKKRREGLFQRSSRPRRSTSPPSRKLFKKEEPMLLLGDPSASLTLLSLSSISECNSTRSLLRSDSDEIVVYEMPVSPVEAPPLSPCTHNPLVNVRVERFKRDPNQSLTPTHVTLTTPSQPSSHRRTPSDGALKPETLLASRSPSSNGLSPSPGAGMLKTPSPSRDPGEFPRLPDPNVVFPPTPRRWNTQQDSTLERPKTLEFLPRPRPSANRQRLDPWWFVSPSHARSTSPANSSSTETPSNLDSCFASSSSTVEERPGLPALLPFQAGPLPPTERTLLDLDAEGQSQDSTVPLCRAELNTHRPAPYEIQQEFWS
T4 sequence (P48730 whole entry): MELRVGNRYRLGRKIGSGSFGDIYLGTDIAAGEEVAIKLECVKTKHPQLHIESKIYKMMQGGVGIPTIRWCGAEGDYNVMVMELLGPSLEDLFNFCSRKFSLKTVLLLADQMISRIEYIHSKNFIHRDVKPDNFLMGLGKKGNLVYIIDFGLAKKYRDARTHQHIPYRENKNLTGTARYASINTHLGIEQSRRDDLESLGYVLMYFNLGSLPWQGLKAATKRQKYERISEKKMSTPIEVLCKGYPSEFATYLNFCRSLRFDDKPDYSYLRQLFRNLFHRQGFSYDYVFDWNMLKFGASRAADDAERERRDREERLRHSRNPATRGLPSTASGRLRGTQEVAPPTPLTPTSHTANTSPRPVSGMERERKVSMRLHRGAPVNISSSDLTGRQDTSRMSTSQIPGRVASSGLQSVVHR
T12 sequence (Q16288 32-839): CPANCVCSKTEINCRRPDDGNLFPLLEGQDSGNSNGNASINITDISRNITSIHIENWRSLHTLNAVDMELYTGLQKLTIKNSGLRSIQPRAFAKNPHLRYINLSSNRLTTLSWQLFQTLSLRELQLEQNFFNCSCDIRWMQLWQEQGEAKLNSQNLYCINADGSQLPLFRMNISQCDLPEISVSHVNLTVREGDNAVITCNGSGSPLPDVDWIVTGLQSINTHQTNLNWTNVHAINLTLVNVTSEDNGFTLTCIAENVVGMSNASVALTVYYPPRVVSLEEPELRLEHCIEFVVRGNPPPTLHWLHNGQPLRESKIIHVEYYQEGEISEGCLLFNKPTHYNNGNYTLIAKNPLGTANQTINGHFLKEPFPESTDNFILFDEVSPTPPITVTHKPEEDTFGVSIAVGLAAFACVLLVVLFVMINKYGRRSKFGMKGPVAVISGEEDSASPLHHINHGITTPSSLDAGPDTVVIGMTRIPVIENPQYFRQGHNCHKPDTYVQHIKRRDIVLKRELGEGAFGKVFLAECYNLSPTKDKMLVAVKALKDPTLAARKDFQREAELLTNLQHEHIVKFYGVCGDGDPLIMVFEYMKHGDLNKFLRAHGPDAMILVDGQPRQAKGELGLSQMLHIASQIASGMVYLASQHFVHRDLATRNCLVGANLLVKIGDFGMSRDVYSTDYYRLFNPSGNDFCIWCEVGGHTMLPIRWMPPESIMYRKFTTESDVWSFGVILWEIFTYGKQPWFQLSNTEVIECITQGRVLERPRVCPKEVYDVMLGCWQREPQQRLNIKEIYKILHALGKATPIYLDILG
T8 sequence (Q9P0L2 whole entry): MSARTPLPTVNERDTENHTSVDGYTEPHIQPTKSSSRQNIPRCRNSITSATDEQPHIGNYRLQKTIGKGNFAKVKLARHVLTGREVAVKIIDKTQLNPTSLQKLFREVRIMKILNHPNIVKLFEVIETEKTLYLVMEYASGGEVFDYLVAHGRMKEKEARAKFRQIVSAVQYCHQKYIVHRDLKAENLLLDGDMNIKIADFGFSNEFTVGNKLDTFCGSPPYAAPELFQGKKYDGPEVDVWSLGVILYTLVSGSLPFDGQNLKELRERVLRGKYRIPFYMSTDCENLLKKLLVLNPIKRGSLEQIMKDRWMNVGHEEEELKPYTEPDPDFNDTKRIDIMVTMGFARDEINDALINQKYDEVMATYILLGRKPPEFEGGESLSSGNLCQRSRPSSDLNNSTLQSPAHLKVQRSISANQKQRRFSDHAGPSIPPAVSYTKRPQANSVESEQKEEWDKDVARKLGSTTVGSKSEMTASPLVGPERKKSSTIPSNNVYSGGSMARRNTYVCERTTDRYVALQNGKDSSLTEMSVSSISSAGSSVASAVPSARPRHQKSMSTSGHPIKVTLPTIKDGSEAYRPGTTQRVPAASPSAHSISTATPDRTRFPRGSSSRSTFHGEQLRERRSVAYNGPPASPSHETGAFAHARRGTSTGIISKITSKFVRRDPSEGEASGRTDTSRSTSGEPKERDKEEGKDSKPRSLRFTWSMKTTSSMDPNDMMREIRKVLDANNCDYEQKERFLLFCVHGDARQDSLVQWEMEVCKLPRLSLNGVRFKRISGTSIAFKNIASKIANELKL
T5 sequence (P22607 23-806): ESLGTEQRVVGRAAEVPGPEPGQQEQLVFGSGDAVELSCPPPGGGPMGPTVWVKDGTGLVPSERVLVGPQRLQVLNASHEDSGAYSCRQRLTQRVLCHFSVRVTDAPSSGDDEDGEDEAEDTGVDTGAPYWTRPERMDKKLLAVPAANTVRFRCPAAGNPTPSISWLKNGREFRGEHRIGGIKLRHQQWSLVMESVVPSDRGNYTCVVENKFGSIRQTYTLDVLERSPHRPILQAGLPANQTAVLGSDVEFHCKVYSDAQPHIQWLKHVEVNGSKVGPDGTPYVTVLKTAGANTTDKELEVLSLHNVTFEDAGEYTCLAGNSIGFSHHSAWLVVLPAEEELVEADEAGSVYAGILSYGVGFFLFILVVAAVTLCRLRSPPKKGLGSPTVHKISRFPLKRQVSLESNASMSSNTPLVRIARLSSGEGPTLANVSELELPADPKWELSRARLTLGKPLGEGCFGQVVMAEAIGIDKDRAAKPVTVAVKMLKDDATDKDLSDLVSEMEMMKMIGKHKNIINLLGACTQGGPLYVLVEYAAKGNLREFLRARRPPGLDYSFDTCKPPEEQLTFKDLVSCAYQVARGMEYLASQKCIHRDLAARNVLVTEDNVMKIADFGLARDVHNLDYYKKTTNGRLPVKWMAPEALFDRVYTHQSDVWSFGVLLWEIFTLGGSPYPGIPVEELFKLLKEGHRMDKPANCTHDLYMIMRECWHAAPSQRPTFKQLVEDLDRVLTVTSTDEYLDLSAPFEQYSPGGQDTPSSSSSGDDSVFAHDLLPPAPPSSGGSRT
T14 sequence (Q13882 whole entry): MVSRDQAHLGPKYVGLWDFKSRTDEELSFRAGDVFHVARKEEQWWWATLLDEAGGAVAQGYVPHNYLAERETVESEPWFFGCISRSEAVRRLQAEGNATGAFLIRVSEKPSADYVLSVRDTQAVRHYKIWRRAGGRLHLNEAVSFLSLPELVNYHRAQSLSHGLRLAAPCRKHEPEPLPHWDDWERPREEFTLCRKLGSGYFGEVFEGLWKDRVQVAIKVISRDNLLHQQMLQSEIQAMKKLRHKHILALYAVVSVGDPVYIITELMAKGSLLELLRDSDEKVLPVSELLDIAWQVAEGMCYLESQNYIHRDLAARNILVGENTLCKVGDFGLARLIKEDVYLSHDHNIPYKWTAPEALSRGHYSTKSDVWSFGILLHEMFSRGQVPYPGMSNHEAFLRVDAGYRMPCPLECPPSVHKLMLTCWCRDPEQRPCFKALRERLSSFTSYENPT
T1 sequence (Q9Y243 whole entry): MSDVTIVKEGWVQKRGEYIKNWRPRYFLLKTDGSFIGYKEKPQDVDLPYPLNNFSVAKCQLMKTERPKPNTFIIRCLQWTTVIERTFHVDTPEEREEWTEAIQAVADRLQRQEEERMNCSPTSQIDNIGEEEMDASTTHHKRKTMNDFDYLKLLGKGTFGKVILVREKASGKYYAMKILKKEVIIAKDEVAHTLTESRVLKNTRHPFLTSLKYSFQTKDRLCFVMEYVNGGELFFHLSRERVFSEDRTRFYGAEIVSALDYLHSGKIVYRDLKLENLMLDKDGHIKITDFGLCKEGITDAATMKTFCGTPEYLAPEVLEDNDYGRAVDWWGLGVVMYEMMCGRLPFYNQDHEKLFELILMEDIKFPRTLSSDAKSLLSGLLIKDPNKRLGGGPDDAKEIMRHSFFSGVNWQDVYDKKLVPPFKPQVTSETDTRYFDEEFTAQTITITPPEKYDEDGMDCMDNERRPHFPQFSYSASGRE

Compound: Cc1ncc(-c2nc(Nc3ccc(C(=O)NCCN4CCCCC4)cc3)ncc2F)n1C(C)C [Compound 3]
- inhibition at 10 µM (AKT3 (PKB gamma)): 43%
- inhibition at 10 µM (CAMK1D (CaMKI delta)): 59%
- inhibition at 10 µM (CAMK4 (CaMKIV)): 8%
- inhibition at 10 µM (CSNK1D (CK1 delta)): 92%
- inhibition at 10 µM (FGFR3): 54%
- inhibition at 10 µM (GRK7): 40%
- inhibition at 10 µM (MAP3K9 (MLK1)): 92%
- inhibition at 10 µM (MARK1 (MARK)): 87%
- inhibition at 10 µM (MARK2): 89%
- inhibition at 10 µM (MERTK (cMER)): 99%
- inhibition at 10 µM (MST4): 75%
- inhibition at 10 µM (NTRK3 (TRKC)): 79%
- inhibition at 10 µM (PRKCI (PKC iota)): 5.66%
- inhibition at 10 µM (PTK6 (Brk)): 61%

Compound: Cc1cc(Nc2nc(N)nn2C(=O)NC(C)C)ccc1Cl [Compound 5]
- inhibition at 10 µM (AKT3 (PKB gamma)): 2%
- inhibition at 10 µM (CAMK1D (CaMKI delta)): 0.357%
- inhibition at 10 µM (CAMK4 (CaMKIV)): -10%
- inhibition at 10 µM (CSNK1D (CK1 delta)): -2%
- inhibition at 10 µM (FGFR3): 13%
- inhibition at 10 µM (GRK7): 10%
- inhibition at 10 µM (MAP3K9 (MLK1)): 69%
- inhibition at 10 µM (MARK1 (MARK)): 17%
- inhibition at 10 µM (MARK2): 24%
- inhibition at 10 µM (MERTK (cMER)): 43%
- inhibition at 10 µM (MST4): 43%
- inhibition at 10 µM (NTRK3 (TRKC)): 52%
- inhibition at 10 µM (PRKCI (PKC iota)): -6%
- inhibition at 10 µM (PTK6 (Brk)): 5.47%

Compound: XMD8-92 [Compound 2, reference compound]
- AKT3 (PKB gamma) % Inhibition (AKT3 (PKB gamma); 10 µM compound, ATP Km app): 72%
- CAMK1D (CaMKI delta) % Inhibition (CAMK1D (CaMKI delta); 10 µM compound, ATP Km app): 19%
- CAMK4 (CaMKIV) % Inhibition (CAMK4 (CaMKIV); 10 µM compound, ATP Km app): 3%
- CSNK1D (CK1 delta) % Inhibition (CSNK1D (CK1 delta); 10 µM compound, ATP Km app): 4.56%
- FGFR3 % Inhibition (FGFR3; 10 µM compound, ATP Km app): 9%
- GRK7 % Inhibition (GRK7; 10 µM compound, ATP Km app): 39%
- MAP3K9 (MLK1) % Inhibition (MAP3K9 (MLK1); 10 µM compound, ATP Km app): 8.53%
- MARK1 (MARK) % Inhibition (MARK1 (MARK); 10 µM compound, ATP Km app): 11%
- MARK2 % Inhibition (MARK2; 10 µM compound, ATP Km app): 9%
- MERTK (cMER) % Inhibition (MERTK (cMER); 10 µM compound, ATP Km app): 0.252%
- MST4 % Inhibition (MST4; 10 µM compound, ATP Km app): 15%
- NTRK3 (TRKC) % Inhibition (NTRK3 (TRKC); 10 µM compound, ATP Km app): 64%
- PRKCI (PKC iota) % Inhibition (PRKCI (PKC iota); 10 µM compound, ATP Km app): 0.17%
- PTK6 (Brk) % Inhibition (PTK6 (Brk); 10 µM compound, ATP Km app): 14%

From article PMC4854315, “Discovery of a novel allosteric inhibitor-binding site in ERK5: comparison with the canonical kinase hinge ATP-binding site” (Acta Crystallographica. Section D, Structural Biology, 2016)
